13 molecules from publication PMC12472947 (Pharmaceuticals, 2025) can be followed below.

Structures are written as SMILES. Several values for one entry are separate records, joined by “and”; a condition that tells them apart may be missing. Equal entries are not always repeated. Where two headings read alike, the source gives them in different places. Some results are limits rather than exact numbers.

Data set [1] deals with electric eel AChE [EeAChE] (Electrophorus electricus, UniProt O42275). Nature of the data set: biochemical. Format: biochemical. As to conditions: for IC50: Electric eel AChE, Ellman method, read-out: IC50(nM) ± SD AChE (EeAChE); for SI: Selectivity Index = EqBChE IC50/EeAChE IC50. How it is done: (§1) The anticholinesterase activity was determined using Ellman’s method, adapted as follows. […] Subsequently, 60 μL of 5,5′-dithiobis(2-nitrobenzoic acid) (DTNB, 1.1 mM) and 30 μL of enzyme solution (electric eel AChE [EeAChE], human AChE [hAChE], or equine serum BChE [EqBChE], 0.20 U/mL) containing 1 mg/mL bovine serum albumin (BSA) were added. […] Enzyme activity was calculated as the percentage relative to untreated controls, subtracting the blank reference. IC50 values were derived via non-linear regression analysis of dose–response curves (Figure S4) using GraphPad Prism v7.0.

Data set [2] addresses T1, equine serum BChE [EqBChE] (Equus caballus, UniProt P81908).
T1 construct: equine serum BChE [EqBChE]; from tissue; host or cells: equine serum
Nature of the data set: biochemical. To be noted: Ellman method, read-out: IC50(nM) ± SD BChE (EqBChE). How it is done:
as §1

The target of data set [3] is electric eel acetylcholinesterase (EeAChE) (Electrophorus electricus, UniProt O42275). Put plainly: Enzymatic kinetic study, EeAChE. Format: biochemical. As to conditions: AChE. How it is done: (§2) The enzymatic kinetics of cholinesterase inhibition were determined according to an adapted Ellman’s method. All of the solutions were prepared at 20 °C in 0.02 M Tris-HCl buffer (pH 7.5; ionic strength ~0.02 M), stock solutions of test compounds were prepared in DMSO:EtOH (7:3) mixture (20 mM), and the experiment was conducted in triplicate. To a flat-bottom 96-well transparent plate (path length of 0.6 cm) were added 150 μL of treatment solutions with inhibitors 1a, 1h, and 1j at two different concentrations (Table S1) distributed in eight sets of triplicate each. Eight sets of untreated triplicates were used as a negative control. Following, there were added 60 μL of 5,5′-Dithiobis(2-nitrobenzoic acid) (DTNB, Ellman’s reagent) at 1.1 mM and 30 μL of electric eel acetylcholinesterase (EeAChE) or equine serum butyrylcholinesterase (EqBuChE) at 0.20 U/mL in the presence of 1 mg/mL bovine serum albumin (BSA). […] Ki, Ki’ (competitive and noncompetitive inhibition constants, respectively), Km (Michaelis-Menten constant), and Vmax values were calculated with Graphpad Prism v7.0 using the non-linear regression models for enzyme kinetics inhibition and enzyme kinetics–substrate vs. velocity.

The target of data set [4] is T2, equine serum butyrylcholinesterase (EqBuChE) (Equus caballus, UniProt P81908).
T2 construct: equine serum BChE [EqBChE]; from tissue; host or cells: equine serum
Put plainly: Enzymatic kinetic study, EqBChE. The data set is classed as biochemical. To be noted: BChE. How it is done: as §2

Data set [5] is described as follows: Cytotoxicity (neurotoxicity) MTT assay in SH-SY5Y. The data set is classed as cell-based. To be noted: human, SH-SY5Y neuroblastoma cells. The procedure:
(§3) The immortalized human neuroblastoma cell line (SH-SY5Y–ATCC: CRL-2226; BCRJ:0223) was used to evaluate cytotoxicity. The cell line was cultured in Dulbecco’s Modified Eagle’s Medium and F12 in a 1:1 ratio (DMEM:F12; Sigma-Aldrich code 0697, Brazil) supplemented with 10% fetal bovine serum (FBS; Sigma-Aldrich code F2442, Brazil) and 1% streptomycin/penicillin (10,000 U/mL and 10,000 μg/mL, respectively; Nova Biotecnologia code BR30110-01, Cotia, SP, Brazil) and incubated at 37 °C with 5% CO2. The culture medium was replaced every 48 h, until the cells reached semi-confluence (≥70%). Cell passage was carried out with the aid of trypsin-EDTA/0.25% solution (Nova Biotecnologia, Brazil) and divided between 5 or 8 mL culture volumes depending on the respective bottles (25 or 75 cm^2) used.
(§4) The in vitro cytotoxicity assay evaluated cell viability using the [3-(4,5-dimethylthiazol-2yl)-2,5-diphenyl tetrazolium] bromide (MTT) reduction assay. Cells were seeded at an initial density of 5.0 × 10^4 cells/well in 96-well plates in a volume of 200 µL. […] In the next step, the culture medium was replaced by the sample solution previously described (Section 3.4.2). After 24 h exposure, the medium was replaced with 100 μL of MTT in phosphate-buffer saline (PBS), pH 7.4, at a concentration of 0.5 mg.mL^−1/well and the plates were incubated for an additional 3 h. Then, the MTT solution was removed, and 100 μL of DMSO was added to solubilize the formazan crystals. The cell viability was measured by absorbance at 562 nm using a Microplate Absorbance Reader (Kasuaki, Brazil). All concentrations tested were evaluated in nine replicates (n = 9). The variation in results was observed using ANOVA followed by Tukey’s test for multiple comparisons through GraphPad Prism v5^TM with a significance level of p < 0.05.

Data set [6] concerns SH-SY5Y neuroblastoma cells. Nature of the data set: Cytotoxicity (neurotoxicity) MTT assay in SH-SY5Y. Format: cell-based. To be noted: up to 50 µM. The procedure:
as §3, §4

Data set [7] relates to H2O2-damaged SH-SY5Y cells. Nature of the data set: In vitro neuroprotection against H2O2 in SH-SY5Y (MTT). The procedure:
For the neuroprotection assay, the cells previously cultured (Section 3.4.1) were seeded in 96-well plates at a density of 5 × 10^4 cells/well in a volume of 200 µL. The plates were incubated at 37 °C containing 5% CO2 for 24 h. After 24 h, the medium was replaced with the test solutions. […] Finally, the test solutions were removed, the cells were washed with PBS pH 7.4, and the H2O2 solution was added and maintained in contact with the cells for 24 h. After 24 h exposure, the neuroprotective capacity was assessed through cell viability using the MTT assay protocol previously described in Section 3.4.3 [52, 53].

Setting [8] is: enzyme-substrate complex, global non-linear regression (Table 2).
Setting [9] is: global non-linear regression, mixed inhibition (Table S3).

electric eel AChE [EeAChE], sequence (O42275 24-633): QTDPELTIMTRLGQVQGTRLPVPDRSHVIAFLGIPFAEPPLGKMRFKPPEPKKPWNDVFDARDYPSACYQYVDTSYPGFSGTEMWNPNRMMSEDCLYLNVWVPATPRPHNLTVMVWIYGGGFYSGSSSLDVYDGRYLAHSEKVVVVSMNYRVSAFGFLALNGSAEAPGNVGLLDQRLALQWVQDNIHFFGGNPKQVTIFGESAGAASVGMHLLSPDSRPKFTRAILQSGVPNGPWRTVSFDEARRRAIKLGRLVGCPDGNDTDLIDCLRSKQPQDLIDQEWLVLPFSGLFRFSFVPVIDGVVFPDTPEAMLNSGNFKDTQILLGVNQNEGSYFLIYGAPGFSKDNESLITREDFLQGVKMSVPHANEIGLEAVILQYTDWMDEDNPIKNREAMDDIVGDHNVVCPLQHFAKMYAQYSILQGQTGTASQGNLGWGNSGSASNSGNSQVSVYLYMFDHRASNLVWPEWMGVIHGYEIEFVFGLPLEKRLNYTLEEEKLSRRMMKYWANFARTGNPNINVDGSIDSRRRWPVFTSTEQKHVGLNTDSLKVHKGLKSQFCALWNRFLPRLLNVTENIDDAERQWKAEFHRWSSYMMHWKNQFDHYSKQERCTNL
electric eel acetylcholinesterase (EeAChE), sequence (O42275 24-633): as above
T2 sequence (P81908 whole entry): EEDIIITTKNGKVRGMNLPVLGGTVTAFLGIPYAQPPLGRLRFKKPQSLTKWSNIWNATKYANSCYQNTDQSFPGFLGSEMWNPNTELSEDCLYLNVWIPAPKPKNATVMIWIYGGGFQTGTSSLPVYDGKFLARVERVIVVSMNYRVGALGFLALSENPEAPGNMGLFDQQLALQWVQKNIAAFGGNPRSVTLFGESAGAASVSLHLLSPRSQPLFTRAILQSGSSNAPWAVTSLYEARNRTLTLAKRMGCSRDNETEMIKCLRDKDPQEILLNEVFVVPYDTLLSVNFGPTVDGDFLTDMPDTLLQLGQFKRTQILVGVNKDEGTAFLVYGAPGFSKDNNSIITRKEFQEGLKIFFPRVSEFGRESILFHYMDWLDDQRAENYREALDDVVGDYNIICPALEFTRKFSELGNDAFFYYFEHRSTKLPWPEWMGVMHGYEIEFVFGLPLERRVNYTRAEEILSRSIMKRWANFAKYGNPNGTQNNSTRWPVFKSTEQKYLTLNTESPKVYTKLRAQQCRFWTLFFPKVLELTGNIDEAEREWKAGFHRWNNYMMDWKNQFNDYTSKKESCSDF
T1 sequence (P81908 whole entry): as above

Turning to `CC1CCN(CCOc2ccc3cc(-c4cn(-c5ccccc5)nn4)c(=O)oc3c2)CC1` [Compound 1e, 7-(2-(4-Methylpiperidin-1-yl)ethoxy)-3-(1-phenyl-1H-1,2,3-triazol-4-yl)-2H-chromen-2-one], in data set [1], the half-maximal inhibitory concentration (IC50) stood at 1690 ± 75 nM and the SI is around 7. For the same molecule, in data set [2], the 50% inhibitory concentration (IC50) was determined as 11100 nM.
In the case of `O=c1oc2cc(OCCN3CCCCC3)ccc2cc1-c1cn(-c2ccccc2)nn1` [Compound 1a, 3-(1-Phenyl-1H-1,2,3-triazol-4-yl)-7-(2-(piperidin-1-yl)ethoxy)-2H-chromen-2-one], the 50% inhibitory concentration (IC50) worked out at 50 ± 2.04 nM in data set [1] and 8660 ± 150 nM in data set [2]. Also, in data set [1], the SI is on record as 173. Also, the inhibition mechanism result in data set [3] (Lineweaver-Burk plots) and in data set [4] (Lineweaver-Burk plots) was “mixed-type inhibition” throughout. Also, the “Ki′ ± SE (95% CI)” value in data set [3] (enzyme-substrate complex (Table S3)) is 0.06159 ± 0.02004 µM. Further, the “Ki’ (nM) ± SE” value in data set [3] (setting [8]) is 61.59 ± 20.04 nM; in data set [4] (setting [8]), 11,400 ± 1100 nM. The Ki worked out at 30.8 ± 5.38 nM in data set [3] (free enzyme, global non-linear regression to mixed-inhibition equation (Table 2), read-out: Ki (nM) ± SE); 3500 ± 64.9 nM in data set [4] (competitive inhibition constant (Table S2), read-out: Ki (nM) ± SD); 3940 ± 227 nM in data set [4] (free enzyme (Table S3), read-out: Ki ± SE (95% CI)); 3940 ± 230 nM in data set [4] (free enzyme, global non-linear regression (Table 2), read-out: Ki (nM) ± SE). For the same molecule, the entries for the “α ± SE (95% CI)” value in data set [3] (setting [9]) and in data set [4] (setting [9]) were 2.001 ± 0.6489 and 2.883 ± 0.3970, respectively. Further, the “Vmax ± SD” value was 2.78 ± 0.044 1 × 10^3 nM/min and 2.78 ± 0.04 1 × 10^3 nM/min in data set [3] (inhibitor 0.02 μM); 2.06 ± 0.031 1 × 10^3 nM/min and 2.06 ± 0.03 1 × 10^3 nM/min in data set [3] (inhibitor 0.06 μM); 11.69 ± 0.201 1 × 10^3 nM/min and 11.69 ± 0.20 1 × 10^3 nM/min in data set [4] (inhibitor 4 μM); 8.24 ± 0.212 1 × 10^3 nM/min and 8.24 ± 0.21 1 × 10^3 nM/min in data set [4] (inhibitor 8 μM).
Turning to `COc1ccccc1Cn1cc(-c2cc3ccc(OCCN4CCCCC4)cc3oc2=O)nn1` [Compound 1i, 3-(1-(2-Methoxybenzyl)-1H-1,2,3-triazol-4-yl)-7-(2-(piperidin-1-yl)ethoxy)-2H-chromen-2-one], in data set [1], the half-inhibitory concentration (IC50) stood at 15.3 ± 0.25 nM and the SI was found to be 184. Also, the concentration for half-maximal inhibition (IC50) in data set [2] stood at 2810 ± 230 nM.
For `O=c1oc2cc(OCCN3CCCCC3)ccc2cc1-c1cn(Cc2cccc(Cl)c2)nn1` [Compound 1m], in that order: 13.1 ± 0.83 nM, 149 and 1950 ± 120 nM.
Turning to `O=c1oc2cc(OCCN3CCCCC3)ccc2cc1-c1cn(Cc2ccc(Br)cc2)nn1` [Compound 1p, 3-(1-(4-Bromobenzyl)-1H-1,2,3-triazol-4-yl)-7-(2-(piperidin-1-yl)ethoxy)-2H-chromen-2-one], in data set [1], the IC50 worked out at 12.9 ± 0.96 nM and the SI is reported as 88. The concentration for half-maximal inhibition (IC50) in data set [2] came out at 1140 ± 70 nM.
For the molecule `COc1ccc(Cn2cc(-c3cc4ccc(OCCN5CCCCC5)cc4oc3=O)nn2)cc1` [Compound 1k, 3-(1-(4-Methoxybenzyl)-1H-1,2,3-triazol-4-yl)-7-(2-(piperidin-1-yl)ethoxy)-2H-chromen-2-one], in data set [1], the IC50 was 4.58 ± 0.62 nM and the SI stood at 443. Besides, the IC50 in data set [2] worked out at 2080 ± 99 nM. Also, the viability at 24 h, 12.5 µM in data set [5] (12.5 μM, 24 h, MTT, read-out: Cell viability (% of control)) was found to be 99%. In data set [5] (25.0 μM, 24 h, MTT, read-out: Cell viability (% of control)), the viability at 24 h, 25 µM came out at 106%. Also, the viability at 24 h, 50 µM in data set [5] (50.0 μM, 24 h, MTT, read-out: Cell viability (% of control)) is 84%. Also, the viability at 24 h in data set [5] (up to 25 μM, read-out: cell viability) was at least 70%. In addition, the neurotoxicity result in data set [6] is “non-neurotoxic”. The “neuroprotection against H2O2-induced oxidative stress” value in data set [7] (12.5 µM) is on record as “neuroprotective effects”. For the same molecule, the viability at 12.5 µM in data set [7] (Homo sapiens, SH-SY5Y, read-out: Cell viability (% of control)) came to 92%.
With `O=c1oc2cc(OCCN3CCCCC3)ccc2cc1-c1cn(Cc2ccc(F)cc2)nn1` [Compound 1l, 3-(1-(4-Fluorbenzyl)-1H-1,2,3-triazol-4-yl)-7-(2-(piperidin-1-yl)ethoxy)-2H-chromen-2-one], in data set [1], the half-maximal inhibitory concentration (IC50) turned out to be 23.4 ± 1.77 nM and the SI turned out to be 176. Moreover, in data set [2], the IC50 was 4120 ± 110 nM.
Regarding `O=c1oc2cc(OCCCCN3CCCCC3)ccc2cc1-c1cn(-c2ccccc2)nn1` [Compound 1c, 3-(1-Phenyl-1H-1,2,3-triazol-4-yl)-7-(4-(piperidin-1-yl)butoxy)-2H-chromen-2-one], the IC50 in data set [1] is 1110 ± 10 nM; in data set [2], 2410 ± 29 nM. This molecule registered an SI in data set [1] of around 2.
For `O=c1oc2cc(OCCN3CCCCC3)ccc2cc1-c1cn(Cc2ccc(Cl)cc2)nn1` [Compound 1n, 3-(1-(4-Chlorobenzyl)-1H-1,2,3-triazol-4-yl)-7-(2-(piperidin-1-yl)ethoxy)-2H-chromen-2-one], the values for the IC50 in data set [1] and in data set [2] were 104 ± 5.4 nM and 2240 ± 60 nM, respectively.
Take `CN1CCN(CCOc2ccc3cc(-c4cn(-c5ccccc5)nn4)c(=O)oc3c2)CC1` [Compound 1f, 7-(2-(4-Methylpiperazin-1-yl)ethoxy)-3-(1-phenyl-1H-1,2,3-triazol-4-yl)-2H-chromen-2-one]: in data set [1], the IC50 was 3160 ± 76 nM and the SI is recorded as 3. Further, the IC50 in data set [2] amounted to 8140 ± 890 nM.
Consider `O=c1oc2cc(OCCN3CCNCC3)ccc2cc1-c1cn(-c2ccccc2)nn1` [Compound 1g, 3-(1-Phenyl-1H-1,2,3-triazol-4-yl)-7-(2-(piperazin-1-yl)ethoxy)-2H-chromen-2-one], for which, in data set [1], the IC50 was 1060 ± 74 nM and the SI is around 8. In data set [2], the IC50 was 9840 ± 130 nM.
Take `O=c1oc2cc(OCCN3CCCCC3)ccc2cc1-c1cn(Cc2cccc(Br)c2)nn1` [Compound 1o, 3-(1-(3-Bromobenzyl)-1H-1,2,3-triazol-4-yl)-7-(2-(piperidin-1-yl)ethoxy)-2H-chromen-2-one]: in data set [1], the IC50 worked out at 7.92 ± 0.48 nM and the SI is reported as 265. Further, in data set [2], the IC50 came to 2090 ± 54 nM.
As to `O=c1oc2cc(OCCCCCN3CCCCC3)ccc2cc1-c1cn(-c2ccccc2)nn1` [Compound 1d, 3-(1-Phenyl-1H-1,2,3-triazol-4-yl)-7-((5-(piperidin-1-yl)pentyl)oxy)-2H-chromen-2-one], the IC50 in data set [1] was determined as 4790 ± 290 nM; in data set [2], 3540 ± 81 nM. In addition, the SI in data set [1] was around 1.
